Laboratory results published in patent US7148009B2, “Cancer drug screen based on cell cycle uncoupling” (The Johns Hopkins University, priority 1996, dated 2006).

Legend:
[1] = tested on: HCT116 (+/−) cells, one normal p21 allele and one deleted; assay: Apoptosis after drug treatment, heterozygous cells; assay type: cell-based, human; conditions: Adriamycin 0.2 ug/ml, etoposide 5 ug/ml, camptothecan 0.1 ug/ml
Description: (§1) HCT116 cells with (+/+) or without (−/−) p21 genes were generated by homologous recombination. Logarithmically-growing cells in McCoy's 5A medium with 10% fetal calf serum were treated with Adriamycin (0.2 ug/ml) for 90 hours. In FIG. 1b, the adherent cells were harvested by trypsinization and combined with cells floating in the media. After washing with Hanks Buffered Saline (HBS; Life Technologies), cells were resuspended in 40 ul HBS and added to 360 ul of a solution containing 0.7% NP-40, 4.7% formaldehyde and 11 ug/ml H133258 in phosphate buffered saline (PBS). Cells were then viewed under UV excitation and photographed with a Nikon Labophot microscope. In FIG. 1c, adherent cells were fixed in 1% formaldehyde, then incubated in the presence of exogenous terminal transferase and biotin-11-dUTP as previously described^7. Labeled cells were detected by immunoperoxidase staining (Vector).
(§2) Cells were grown, fixed, and stained as described in Example 1. Irradiation was delivered at 1 Gy/minute using a ^137Cs source. Apoptotic cells were recognized as condensed, punctate nuclei (examples in FIG. 1d) or ghosts with faintly stained, degrading nuclei. At least 200 cells were counted for each time point, and the experiment was repeated with results virtually identical to those shown. The error bars represent the Poisson standard deviation determined by taking the square root of counted events and converting it to percent abundance. All counting was done in a blinded fashion. The (+/−) cells contained one normal p21 allele and one allele deleted by homologous recombination^5.

[2] = tested on: HCT116 cells with (+/+) p21 genes; assay: Apoptosis after drug treatment (phase contrast, H33258 staining, TUNEL), parental cells; assay type: cell-based, human; conditions: for cell fate (apoptosis) by phase contrast microscopy and H33258 staining: etoposide 5 ug/ml, camptothecan 0.1 ug/ml, time course
Description: as §1, §2

[3] = tested on: HCT116 cells without (−/−) p21 genes; assay: Apoptosis after drug treatment (phase contrast, H33258 staining, TUNEL), p21-deficient cells; assay type: cell-based, human
Description: as §1
as §2, with “At least 200 cells were counted for each time point, and the experiment was repeated with results virtually identical to those shown.” left out

[4] = tested on: HCT116 p21−/− cells; assay: Cell cycle analysis by flow cytometry, p21-deficient cells; conditions: Adriamycin 0.2 ug/ml
[5] = tested on: HCT116 p21+/+ cells; assay: Cell cycle analysis by flow cytometry, parental cells; conditions: Adriamycin 0.2 ug/ml
[6] = p21−/− cells, Adriamycin 0.2 ug/ml, 90 hours
[7] = longer treatments (beyond 30 hours)

| SMILES | kinetics of apoptosis compared with parental cells [1] | cell fate (apoptosis) by phase contrast microscopy and H33258 staining [2] | cell fate (apoptosis) by phase contrast microscopy and H33258 staining ([3]; p21−/− cells, etoposide 5 ug/ml, time course) | response in a second, independently isolated p21−/− clone ([3]; Adriamycin 0.2 ug/ml, time course of apoptosis) | TUNEL staining of DNA breaks characteristic of apoptosis [3, 6] | cell morphology, phase contrast microscopy [3, 6] | nuclear morphology after H33258 staining [3, 6] | cell cycle distribution by flow cytometry ([4]; 30 hours of exposure) | DNA content by flow cytometry [4, 7] | cell morphology, phase contrast microscopy ([2]; Adriamycin 0.2 ug/ml, 90 hours) | nuclear morphology after H33258 staining ([2]; Adriamycin 0.2 ug/ml, 90 hours) | cell cycle distribution by flow cytometry ([5]; 30 hours of exposure) | flow cytometry profile [5, 7] |
| --- | --- | --- | --- | --- | --- | --- | --- | --- | --- | --- | --- | --- | --- |
| CC[C@@]1(O)C(=O)OCc2c1cc1n(c2=O)Cc2cc3ccccc3nc2-1 [camptothecan] | revealed a heterozygote effect | eventually underwent apoptosis, but this was significantly delayed compared to p21-deficient cells |  |  |  |  |  |  |  |  |  |  |  |
| COc1cc([C@@H]2c3cc4c(cc3[C@@H](O[C@@H]3O[C@@H]5CO[C@@H](C)O[C@H]5[C@H](O)[C@H]3O)[C@H]3COC(=O)[C@H]23)OCO4)cc(OC)c1O [etoposide] | behaved similarly to the parental cells | remained healthy | died |  |  |  |  |  |  |  |  |  |  |
| COc1cccc2c1C(=O)c1c(O)c3c(c(O)c1C2=O)C[C@@](O)(C(=O)CO)C[C@@H]3O[C@H]1C[C@H](N)[C@H](O)[C@H](C)O1 [Adriamycin] | behaved similarly to the parental cells |  |  | identical | stained intensely by TUNEL | shrank, rounded, and detached from the dish, suggesting apoptosis | classic condensed and punctate nuclear morphology | a nearly pure population of G2-arrested cells was observed | began to accumulate DNA in excess of 4C, then died | remained attached to the plate and appeared morphologically normal | homogeneous and round | blocked in G1 and G2 phases, with few cells in S | remained largely unchanged |
